The text below walks through data of patent US10660877B2 (BRISTOL-MYERS SQUIBB COMPANY, priority 2016, dated 2020).

The pIC50 is −log10 of the IC50, conventionally taken in molar units.

pIC50: −log10 of the molar value. Read-outs that look alike come from different tables or passages of the source. Where only a bound is given, the exact number is not on record here.

For one assay, the target named is human TLR7 (Homo sapiens (Human), UniProt Q9NYK1). Nature of the assay: TLR7 inhibition reporter assay (HEK-Blue cells, SEAP reporter, gardiquimod stimulation). In kind it is cell-based. On the technique in general: A reporter such as luciferase makes a cellular process visible.
Chain of human TLR7 (Q9NYK1 27-1049): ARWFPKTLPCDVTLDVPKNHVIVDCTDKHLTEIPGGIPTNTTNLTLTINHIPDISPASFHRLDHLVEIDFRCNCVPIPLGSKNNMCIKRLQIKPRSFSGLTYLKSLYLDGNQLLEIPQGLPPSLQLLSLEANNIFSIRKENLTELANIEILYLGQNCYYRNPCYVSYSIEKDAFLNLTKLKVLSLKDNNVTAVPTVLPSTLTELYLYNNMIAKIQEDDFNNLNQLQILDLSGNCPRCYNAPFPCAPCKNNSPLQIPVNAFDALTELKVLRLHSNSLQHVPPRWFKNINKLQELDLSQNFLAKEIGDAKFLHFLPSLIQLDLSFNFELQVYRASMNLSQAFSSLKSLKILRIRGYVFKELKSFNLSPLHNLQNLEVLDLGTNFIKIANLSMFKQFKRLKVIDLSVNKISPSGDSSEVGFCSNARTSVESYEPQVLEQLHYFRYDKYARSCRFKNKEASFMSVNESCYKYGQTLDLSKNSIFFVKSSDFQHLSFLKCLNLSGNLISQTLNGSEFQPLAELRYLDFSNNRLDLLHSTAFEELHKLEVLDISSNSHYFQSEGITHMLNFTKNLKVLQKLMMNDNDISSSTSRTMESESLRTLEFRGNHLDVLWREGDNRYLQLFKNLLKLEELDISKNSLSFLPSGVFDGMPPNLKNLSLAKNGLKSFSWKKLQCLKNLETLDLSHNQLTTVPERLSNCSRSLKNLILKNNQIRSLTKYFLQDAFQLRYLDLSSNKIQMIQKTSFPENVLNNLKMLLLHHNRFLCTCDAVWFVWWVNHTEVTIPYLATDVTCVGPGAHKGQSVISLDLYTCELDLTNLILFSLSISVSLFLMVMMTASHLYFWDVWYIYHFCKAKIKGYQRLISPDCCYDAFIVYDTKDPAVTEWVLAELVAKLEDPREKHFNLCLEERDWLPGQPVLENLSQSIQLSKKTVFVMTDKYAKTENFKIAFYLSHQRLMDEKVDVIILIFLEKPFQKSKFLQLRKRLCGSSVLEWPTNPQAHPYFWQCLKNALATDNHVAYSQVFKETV
The next assay addresses human TLR9 (Homo sapiens (Human), UniProt Q9NR96). The experiment in a line: TLR9 inhibition reporter assay (HEK-Blue cells, SEAP reporter, ODN2006 stimulation).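 Further: compounds tested over 0.05 nM to 50 µM, 22 h incubation, inhibition taken as SEAP signal drop from agonist plus DMSO wells toward a known inhibitor control.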
A further assay deals with human TLR8 (Homo sapiens (Human), UniProt Q9NR97). Nature of the assay: TLR8 inhibition reporter assay (HEK-Blue cells, SEAP reporter, R848 stimulation).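 Further: compounds tested from 0.05 nM to 50 µM, 22 h at 37 °C, SEAP measured with HEK-Blue Detection, inhibition relative to agonist plus DMSO versus a known inhibitor.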
Chain of human TLR8 (Q9NR97 27-1041): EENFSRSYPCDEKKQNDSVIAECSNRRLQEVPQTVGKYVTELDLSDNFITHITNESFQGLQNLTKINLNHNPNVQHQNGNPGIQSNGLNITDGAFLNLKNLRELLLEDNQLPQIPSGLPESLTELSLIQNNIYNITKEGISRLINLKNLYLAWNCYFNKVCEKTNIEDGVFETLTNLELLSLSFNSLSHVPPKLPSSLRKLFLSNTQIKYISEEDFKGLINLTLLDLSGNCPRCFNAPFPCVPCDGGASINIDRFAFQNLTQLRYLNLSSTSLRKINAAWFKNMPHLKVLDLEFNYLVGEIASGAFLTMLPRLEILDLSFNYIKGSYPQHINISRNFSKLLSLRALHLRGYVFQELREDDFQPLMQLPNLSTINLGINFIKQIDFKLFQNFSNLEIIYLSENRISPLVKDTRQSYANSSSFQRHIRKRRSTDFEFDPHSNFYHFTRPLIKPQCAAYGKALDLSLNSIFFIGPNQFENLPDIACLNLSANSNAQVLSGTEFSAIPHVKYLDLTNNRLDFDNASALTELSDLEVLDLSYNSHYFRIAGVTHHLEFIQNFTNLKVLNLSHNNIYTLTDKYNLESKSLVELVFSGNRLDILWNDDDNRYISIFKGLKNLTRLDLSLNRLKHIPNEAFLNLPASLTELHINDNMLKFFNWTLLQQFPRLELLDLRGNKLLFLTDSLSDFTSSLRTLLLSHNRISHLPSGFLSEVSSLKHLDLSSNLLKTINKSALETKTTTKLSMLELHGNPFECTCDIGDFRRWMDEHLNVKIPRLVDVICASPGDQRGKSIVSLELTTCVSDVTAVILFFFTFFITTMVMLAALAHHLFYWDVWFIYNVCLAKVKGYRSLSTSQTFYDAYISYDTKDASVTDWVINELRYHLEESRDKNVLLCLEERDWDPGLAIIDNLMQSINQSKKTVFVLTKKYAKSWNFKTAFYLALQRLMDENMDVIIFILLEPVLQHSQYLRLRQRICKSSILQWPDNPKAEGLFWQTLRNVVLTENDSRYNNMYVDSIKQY
Where [1] appears, read: HEK-Blue cells overexpressing human TLR7, gardiquimod 7.5 μM.
The mark [2] stands for this setting: read-out: TLR9 IC50, HEK-Blue cells overexpressing human TLR9, ODN2006 5 nM.
Where [3] appears, read: read-out: TLR8 IC50, HEK-Blue cells overexpressing human TLR8, R848 15.9 μM.
[4] abbreviates: HEK-Blue cells, gardiquimod 7.5 μM.
Setting [5] is: read-out: TLR9 IC50, HEK-Blue cells, ODN2006 5 nM.
[6] abbreviates: read-out: TLR8 IC50, HEK-Blue cells, R848 15.9 μM.

Chain of human TLR9 (Q9NR96 26-1032): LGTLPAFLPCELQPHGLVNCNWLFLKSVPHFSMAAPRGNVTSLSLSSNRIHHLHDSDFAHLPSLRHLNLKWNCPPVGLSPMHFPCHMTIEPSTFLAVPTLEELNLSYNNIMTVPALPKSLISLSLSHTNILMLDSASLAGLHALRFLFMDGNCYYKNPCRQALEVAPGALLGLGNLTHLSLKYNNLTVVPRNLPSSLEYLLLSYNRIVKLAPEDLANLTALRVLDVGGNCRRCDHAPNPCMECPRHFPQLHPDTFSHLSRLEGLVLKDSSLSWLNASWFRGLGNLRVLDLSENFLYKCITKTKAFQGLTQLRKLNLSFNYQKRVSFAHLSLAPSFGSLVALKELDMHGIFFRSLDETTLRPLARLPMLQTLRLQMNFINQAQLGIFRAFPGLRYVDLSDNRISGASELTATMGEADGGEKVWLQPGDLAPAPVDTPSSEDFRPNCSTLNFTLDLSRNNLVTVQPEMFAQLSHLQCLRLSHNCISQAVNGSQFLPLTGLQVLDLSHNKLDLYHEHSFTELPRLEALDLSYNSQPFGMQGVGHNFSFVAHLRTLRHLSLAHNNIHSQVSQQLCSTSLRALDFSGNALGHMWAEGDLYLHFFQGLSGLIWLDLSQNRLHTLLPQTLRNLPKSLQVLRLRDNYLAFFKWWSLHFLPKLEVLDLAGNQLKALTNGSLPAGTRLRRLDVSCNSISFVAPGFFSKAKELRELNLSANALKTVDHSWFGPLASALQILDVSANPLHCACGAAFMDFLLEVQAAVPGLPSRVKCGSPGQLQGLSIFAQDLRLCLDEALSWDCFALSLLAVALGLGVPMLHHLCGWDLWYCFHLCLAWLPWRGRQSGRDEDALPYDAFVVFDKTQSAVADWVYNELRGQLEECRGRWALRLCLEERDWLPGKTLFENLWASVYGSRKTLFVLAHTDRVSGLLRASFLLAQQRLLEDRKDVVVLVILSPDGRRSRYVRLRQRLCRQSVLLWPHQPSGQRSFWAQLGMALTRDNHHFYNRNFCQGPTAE

For `Cc1cc(-c2[nH]c3ccc(C4CCN(CC5CC5)CC4)cc3c2C2CC2)cc(C)n1` [Example 667, 3-cyclopropyl-5-(1-(cyclopropylmethyl)piperidin-4-yl)-2-(2,6-dimethylpyridin-4-yl)-1H-indole], the pIC50 on human TLR7 (setting [1]) is 7.72; on human TLR9 (setting [2]), 7.07; at human TLR8 (setting [3]), 7.49.

As to `Cc1cc(-c2[nH]c3ccc(C4CCN(C(=O)C5(N)COC5)CC4)cc3c2C(C)C)ccn1` [Example 634, (3-aminooxetan-3-yl)(4-(3-isopropyl-2-(2-methylpyridin-4-yl)-1H-indol-5-yl)piperidin-1-yl)methanone], the pIC50 on human TLR7 (setting [1]) was 7.13; on human TLR9 (setting [2]), < 4.30; on human TLR8 (setting [3]), 6.65.

Take `Cc1cc(-c2[nH]c3ccc(C4CCN(C(=O)CN5CCNC(=O)C5)CC4)cc3c2C(C)C)cc(C)n1` [Example 379, 4-(2-(4-(2-(2,6-dimethylpyridin-4-yl)-3-isopropyl-1H-indol-5-yl)piperidin-1-yl)-2-oxoethyl) piperazin-2-one]: the pIC50 against human TLR7 (setting [1]) was 8.11; on human TLR9 (setting [2]), 5.41; at human TLR8 (setting [3]) it was 7.26.

Regarding `Cc1cc(-c2[nH]c3ccc(C4CCN(Cc5ccncc5)CC4)cc3c2C(C)C)cc(C)n1` [Example 435, 2-(2,6-dimethylpyridin-4-yl)-3-isopropyl-5-(1-(pyridin-4-ylmethyl)piperidin-4-yl)-1H-indole], the negative-log IC50 (pIC50) against human TLR7 (setting [1]) was 8.04; at human TLR9 (setting [2]), 6.22; at human TLR8 (setting [3]) it was 8.38.

As for `Cc1cc(-c2[nH]c3ccc(C4CCN(C(=O)c5ccon5)CC4)cc3c2C(C)C)ccn1` [Example 604, (4-(3-isopropyl-2-(2-methylpyridin-4-yl)-1H-indol-5-yl)piperidin-1-yl)(isoxazol-3-yl)methanone], the pIC50 is 7.60 against human TLR7 (setting [1]), 4.64 at human TLR9 (setting [2]) and 6.72 at human TLR8 (setting [3]).

In the case of `Cc1nccc(-c2[nH]c3ccc(C4CCN(C5CCOCC5)CC4)cc3c2C(C)C)c1C` [Example 716, 2-(2,3-dimethylpyridin-4-yl)-3-isopropyl-5-(1-(tetrahydro-2H-pyran-4-yl)piperidin-4-yl)-1H-indole], the pIC50 against human TLR7 (setting [1]) is 6.84; on human TLR9 (setting [2]) it was 5.72; on human TLR8 (setting [3]) it was 7.13.

Take `CCc1c(-c2ccnc(C)c2C)[nH]c2ccc(C3CCNCC3)cc12` [Example 70, 2-(2,3-dimethylpyridin-4-yl)-3-ethyl-5-(piperidin-4-yl)-1H-indole]: the negative-log IC50 (pIC50) is 6.92 on human TLR7 (setting [1]), 5.95 on human TLR9 (setting [2]) and 7.33 on human TLR8 (setting [3]).

For `Cc1cc(-c2[nH]c3ccc(C4CCN(C(=O)CN5CCCC(C)(C)C5)CC4)cc3c2C(C)C)cc(C)n1` [Example 358, 2-(3,3-dimethylpiperidin-1-yl)-1-(4-(2-(2,6-dimethylpyridin-4-yl)-3-isopropyl-1H-indol-5-yl)piperidin-1-yl)ethan-1-one], the pIC50 is 7.89 on human TLR7 (setting [1]), 6.03 at human TLR9 (setting [2]) and 7.63 on human TLR8 (setting [3]).

For `CCC(CC)N1CCC(c2ccc3[nH]c(-c4cc(C)nc(C)c4)c(C(C)C)c3c2)CC1` [Example 436, 2-(2,6-dimethylpyridin-4-yl)-3-isopropyl-5-(1-(pentan-3-yl)piperidin-4-yl)-1H-indole], the negative logarithm of the IC50 (pIC50) is 8.35 against human TLR7 (setting [1]), 7.03 on human TLR9 (setting [2]) and 8.33 at human TLR8 (setting [3]).

For `Cc1cc(-c2[nH]c3ccc(C4CCN(CC(=O)NCCO)CC4)cc3c2C(C)C)cc(C)n1` [Example 222, 2-(4-(2-(2,6-dimethylpyridin-4-yl)-3-isopropyl-1H-indol-5-yl)piperidin-1-yl)-N-(2-hydroxyethyl)acetamide], the pIC50 on human TLR7 (setting [1]) is 8.57; on human TLR9 (setting [2]), 5.65; at human TLR8 (setting [3]) it was 7.80.

On to `Cc1cnc(N)cc1-c1[nH]c2ccc(C3CCNCC3)cc2c1C(C)C` [Example 9, 4-(3-isopropyl-5-(piperidin-4-yl)-1H-indol-2-yl)-5-methylpyridin-2-amine], for which the negative-log IC50 (pIC50) against human TLR7 (setting [1]) is 7.12; at human TLR9 (setting [2]), 6.25; on human TLR8 (setting [3]), 7.66.

On to `Cc1cc(-c2[nH]c3ccc(C4CCN(CC(=O)N(CCO)C(C)C)CC4)cc3c2C(C)C)cc(C)n1` [Example 299, 2-(4-(2-(2,6-dimethylpyridin-4-yl)-3-isopropyl-1H-indol-5-yl)piperidin-1-yl)-N-(2-hydroxyethyl)-N-isopropylacetamide], for which the pIC50 is 7.62 against human TLR7 (setting [1]), 5.58 on human TLR9 (setting [2]) and 6.95 at human TLR8 (setting [3]).

Regarding `Cc1cc(-c2[nH]c3ccc(C4CCN(C(=O)CN5CCOCC5)CC4)cc3c2C(C)C)cc(C)n1` [Example 350, 1-(4-(2-(2,6-dimethylpyridin-4-yl)-3-isopropyl-1H-indol-5-yl)piperidin-1-yl)-2-morpholinoethan-1-one], the values for the pIC50 against human TLR7 (setting [1]), at human TLR9 (setting [2]) and at human TLR8 (setting [3]) were 8.28, 5.41 and 7.54, respectively.

In the case of `Cc1cc(-c2[nH]c3ccc(C4CCN(C(=O)Cc5csc(C)n5)CC4)cc3c2C(C)C)cc(C)n1`, the pIC50 on human TLR7 (setting [1]) is 7.79; at human TLR9 (setting [2]) it was 4.54; on human TLR8 (setting [3]), 6.91.

With `CCCCN(CCO)C(=O)CN1CCC(c2ccc3[nH]c(-c4cc(C)nc(C)c4)c(C(C)C)c3c2)CC1` [Example 298, N-butyl-2-(4-(2-(2,6-dimethylpyridin-4-yl)-3-isopropyl-1H-indol-5-yl)piperidin-1-yl)-N-(2-hydroxyethyl)acetamide], the negative logarithm of the IC50 (pIC50) on human TLR7 (setting [1]) was 7.59; on human TLR9 (setting [2]), 5.57; at human TLR8 (setting [3]), 7.00.

On to `Cc1cc(-c2[nH]c3ccc(C4CCN(C(=O)c5cscn5)CC4)cc3c2C(C)C)ccn1` [Example 609, (4-(3-isopropyl-2-(2-methylpyridin-4-yl)-1H-indol-5-yl)piperidin-1-yl)(thiazol-4-yl)methanone], for which the negative-log IC50 (pIC50) on human TLR7 (setting [1]) is 7.42; on human TLR9 (setting [2]), 4.67; on human TLR8 (setting [3]) it was 6.67.

As for `Cc1cc(-c2[nH]c3ccc(C4CCN(C(=O)C5CCOCC5)CC4)cc3c2C(C)C)ccn1` [Example 597, (4-(3-isopropyl-2-(2-methylpyridin-4-yl)-1H-indol-5-yl)piperidin-1-yl)(tetrahydro-2H-pyran-4-yl)methanone], the negative-log IC50 (pIC50) against human TLR7 (setting [1]) was 7.34; at human TLR9 (setting [2]) it was 4.57; on human TLR8 (setting [3]) it was 6.93.

Consider `Cc1ncc(CN2CCC(c3ccc4[nH]c(-c5ccnc(N)c5)c(C(C)C)c4c3)CC2)[nH]1` [Example 818, 4-(3-isopropyl-5-(1-((2-methyl-1H-imidazol-5-yl)methyl)piperidin-4-yl)-1H-indol-2-yl)pyridin-2-amine], for which the pIC50 on human TLR7 (setting [4]) is 6.55; on human TLR9 (setting [5]), 6.64; at human TLR8 (setting [6]) it was 7.27.

Regarding `Cc1cc(-c2[nH]c3ccc(C4CCN(CC(=O)N[C@H]5CC[C@H](O)CC5)CC4)cc3c2C(C)C)cc(C)n1` [Example 211, 2-(4-(2-(2,6-dimethylpyridin-4-yl)-3-isopropyl-1H-indol-5-yl)piperidin-1-yl)-N-((1r,4r)-4-hydroxycyclohexyl)acetamide], the values for the pIC50 at human TLR7 (setting [1]), at human TLR9 (setting [2]) and on human TLR8 (setting [3]) were 8.96, 6.61 and 8.38, respectively.

For the compound `Cc1cc(-c2[nH]c3ccc(C4CCN(CC(=O)N(C)CC#N)CC4)cc3c2C(C)C)cc(C)n1` [Example 247, N-(cyanomethyl)-2-(4-(2-(2,6-dimethylpyridin-4-yl)-3-isopropyl-1H-indol-5-yl)piperidin-1-yl)-N-methylacetamide], the pIC50 is 8.52 against human TLR7 (setting [1]), 6.34 on human TLR9 (setting [2]) and 8.40 on human TLR8 (setting [3]).

Turning to `CCc1c(-c2ccnc(OC)c2)[nH]c2ccc(C3CCN(C4CCN(C5CCCC5)CC4)CC3)cc12` [Example 785, 5-(1′-cyclopentyl-[1,4′-bipiperidin]-4-yl)-3-ethyl-2-(2-methoxypyridin-4-yl)-1H-indole], the pIC50 is 6.10 at human TLR7 (setting [1]), 6.55 at human TLR9 (setting [2]) and 6.93 at human TLR8 (setting [3]).

`Cc1cc(-c2[nH]c3ccc(C4CCN(CC(=O)N(C)CC(O)c5ccccc5)CC4)cc3c2C(C)C)cc(C)n1` (stereo not drawn) [Example 296, 2-(4-(2-(2,6-dimethylpyridin-4-yl)-3-isopropyl-1H-indol-5-yl)piperidin-1-yl)-N-(2-hydroxy-2-phenylethyl)-N-methylacetamide]: the pIC50 against human TLR7 (setting [1]) is 7.98; on human TLR9 (setting [2]), 6.26; at human TLR8 (setting [3]), 7.34.

In the case of `Cc1cc(-c2[nH]c3ccc(C4CCN(CC(=O)N5CC6(COC6)C5)CC4)cc3c2C(C)C)cc(C)n1` [Example 256, 2-(4-(2-(2,6-dimethylpyridin-4-yl)-3-isopropyl-1H-indol-5-yl)piperidin-1-yl)-1-(2-oxa-6-azaspiro[3.3]heptan-6-yl)ethan-1-one], the pIC50 against human TLR7 (setting [1]) is 8.36; at human TLR9 (setting [2]), 6.39; at human TLR8 (setting [3]), 8.04.

For the compound `Cc1cc(-c2[nH]c3ccc(C4CCN(CC5CCN(C(C)C)CC5)CC4)c(F)c3c2C(C)C)ccn1` [Example 874, 4-fluoro-3-isopropyl-5-(1-((1-isopropylpiperidin-4-yl)methyl)piperidin-4-yl)-2-(2-methylpyridin-4-yl)-1H-indole], the negative-log IC50 (pIC50) against human TLR7 (setting [4]) is 7.81; at human TLR9 (setting [5]), 6.35; at human TLR8 (setting [6]), 7.47.

For `Cc1cc(-c2[nH]c3ccc(C4CCN(C5CC(C)OC(C)C5)CC4)cc3c2C(C)C)ccn1` (stereo not drawn) [Example 713, 5-(1-(2,6-dimethyltetrahydro-2H-pyran-4-yl)piperidin-4-yl)-3-isopropyl-2-(2-methylpyridin-4-yl)-1H-indole], the negative-log IC50 (pIC50) on human TLR7 (setting [1]) was 8.46; at human TLR9 (setting [2]), 6.26; on human TLR8 (setting [3]) it was 7.83.
